Measured values from PMC3513622 (Antiviral research, 2012).
Like-named read-outs stand apart in the source and are kept apart here.

How the values were obtained:
[1] = biological target: T1, EBV-encoded protein kinase (EBV-PK, BGLF4) (Epstein-Barr virus, UniProt P13288); test: In vitro kinase assay of GST-BGLF4; type: biochemical; details: 10μM inhibitor, MBP substrate, 50μM ATP, filter binding
T1 sequence (P13288 1-429): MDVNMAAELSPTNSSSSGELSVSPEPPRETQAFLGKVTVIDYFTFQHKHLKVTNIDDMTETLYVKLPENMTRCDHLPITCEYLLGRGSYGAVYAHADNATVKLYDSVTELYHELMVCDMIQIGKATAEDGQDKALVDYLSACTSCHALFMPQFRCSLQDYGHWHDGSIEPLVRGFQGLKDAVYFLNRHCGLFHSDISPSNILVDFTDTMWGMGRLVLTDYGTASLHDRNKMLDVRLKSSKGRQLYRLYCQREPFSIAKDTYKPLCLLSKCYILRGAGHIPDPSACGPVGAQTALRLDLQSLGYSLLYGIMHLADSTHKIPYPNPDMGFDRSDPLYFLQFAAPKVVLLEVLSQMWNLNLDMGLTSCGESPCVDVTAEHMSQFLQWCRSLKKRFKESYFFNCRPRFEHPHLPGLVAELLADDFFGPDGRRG

Akata cells [2] = test system: Akata cells
Epstein-Barr virus (EBV) [3] = details: for IC50: IgG induction, 0.0005-30μM, EBV genomes by qPCR
EBV early protein EA-D = details: for EA-D expression (immunoblot) / level of hyperphosphorylated form of EA-D (top band): 24 hours after induction; for viral reactivation assessed by expression of EA-D, in words: concentration not stated at the place (Fig. 2: 1 and 10μM)
Epstein-Barr virus (EBV) [4] = test: microbe, parasite or virus in culture; details: human gammaherpesvirus 4, Akata, 48 h
in vitro = details: human
Akata cells [5] = test: Cell viability of Akata cells, modified MTS assay; details: Akata cells, 48 hours, 0.0005-30μM, modified MTS assay
[6] = Cell viability of Akata cells, modified MTS assay; details: human, latently EBV-infected Akata cells
[7] = test system: human cytomegalovirus (HCMV) pUL97 protein kinase; details: 2002, cited from earlier work
purified EBV-PK = details: ref Gershburg et al., 2004; Marschall et al., 2002; cited from earlier work
EBV = details: ref Gershburg et al., 2004; Wang et al., 2009; Zacny et al., 1999; cited from earlier work
[8] = 10μM PKI, Akata cells, 48 hours after IgG induction

Compound: COC(=O)[C@@]1(O)C[C@H]2O[C@]1(C)n1c3ccccc3c3c4c(c5c6ccccc6n2c5c31)C(=O)NC4 [K252A]
- inhibition of GST/EBV-PK activity relative to DMSO [1]: about 75%
- CC50 (Akata cells [2]): 80 nM
- TI (therapeutic index, CC50/IC50 ratio) (Epstein-Barr virus (EBV) [3]): 6
- inhibition of EBV replication relative to DMSO treatment (Epstein-Barr virus (EBV) [3]; 10μM PKI, Akata cells, 48 hours after IgG induction, mean ± sem of 3 experiments): 92±6%
- IC50 (Epstein-Barr virus (EBV) [3]; Akata cells, 48 hours): 14 nM
- EA-D expression (immunoblot) (EBV early protein EA-D; 1μM PKI, Fig. 2B): no EA-D expression was detected
- viral reactivation assessed by expression of EA-D, in words (EBV early protein EA-D): block expression of EBV early protein EA-D

Compound: CO[C@@H]1[C@H](N(C)C(=O)c2ccccc2)C[C@H]2O[C@]1(C)n1c3ccccc3c3c4c(c5c6ccccc6n2c5c31)C(=O)NC4 [PKC-412]
- effect on EBV replication in words (Epstein-Barr virus (EBV) [3]; 10μM PKI, Akata cells, 48 hours after IgG induction, listed as PKC412): effective in inhibiting the EBV replication
- EA-D expression (immunoblot) (EBV early protein EA-D; 1μM PKI, Fig. 2B): no EA-D expression was detected
- viral reactivation assessed by expression of EA-D, in words (EBV early protein EA-D): block expression of EBV early protein EA-D
- IC50 (Epstein-Barr virus (EBV) [4]): 31 nM
- CC50 at 48 h (in vitro): 56 nM

Compound: O=c1c(O)c(-c2ccc(O)c(O)c2)oc2cc(O)cc(O)c12 [quercetin]
- effect on EBV replication in words (Epstein-Barr virus (EBV) [3]; [8]): lack of activity

Compound: CN[C@@H]1C[C@H]2O[C@@](C)([C@@H]1OC)n1c3ccccc3c3c4c(c5c6ccccc6n2c5c31)C(=O)NC4 [Staurosporine]
- effect on EBV replication in words (Epstein-Barr virus (EBV) [3]; [8]): inhibited viral replication
- effect on EBV replication in words (Epstein-Barr virus (EBV) [3]; 10μM PKI, Akata cells, 48 hours after IgG induction, listed as Staurosporin): significantly reduced the EBV genome copy numbers
- viral reactivation assessed by expression of EA-D, in words (EBV early protein EA-D): block expression of EBV early protein EA-D
- CC50 (in vitro): 4 nM

Compound: Nc1nc2c(ncn2COCCO)c(=O)[nH]1 [ACV, acyclovir]
- reduction of viral replication relative to DMSO treatment (Epstein-Barr virus (EBV) [3]; 50μM ACV, Akata cells, 48 hours after IgG induction): 88±6%
- viability at 48 h, 50 μM (in vitro): 89 ± 4%

Compound: Cn1cc(C2=C(c3cn(CCCSC(=N)N)c4ccccc34)C(=O)NC2=O)c2ccccc21 [Ro 31-8220]
- effect on EBV replication in words (Epstein-Barr virus (EBV) [3]; [8]): effective in inhibiting the EBV replication
- TI (therapeutic index, CC50/IC50 ratio) (Epstein-Barr virus (EBV) [3]; Akata cells, 48 hours): 3
- IC50 (Epstein-Barr virus (EBV) [3]; Akata cells, 48 hours): 398 nM
- CC50 (Akata cells [5]): 1150 nM
- EA-D expression (immunoblot) (EBV early protein EA-D; 1μM PKI, Fig. 2B): did not affect the expression of EA-D
- level of hyperphosphorylated form of EA-D (top band) (EBV early protein EA-D; 1μM PKI, Fig. 2B): increased level of this form

Compound: Nc1ncnc2c1c(I)cn2[C@@H]1O[C@H](CO)[C@@H](O)[C@H]1O [5-Iodotubercidin]
- effect on EBV replication in words (Epstein-Barr virus (EBV) [3]; [8]): effective in inhibiting the EBV replication
- IC50 (Epstein-Barr virus (EBV) [3]; Akata cells, 48 hours): 890 nM
- EA-D expression (immunoblot) (EBV early protein EA-D; 1μM PKI, Fig. 2B): did not affect the expression of EA-D

Compound: O=C1Cc2c([nH]c3ccc(Br)cc23)-c2ccccc2N1 [Kenpaullone]
- TI (therapeutic index, CC50/IC50 ratio) (Epstein-Barr virus (EBV) [3]): 8
- effect on EBV replication in words (Epstein-Barr virus (EBV) [3]; [8]): effective in inhibiting the EBV replication
- CC50 at 48 h [6]: 5130 nM
- EA-D expression (immunoblot) (EBV early protein EA-D; 1μM PKI, Fig. 2B): did not affect the expression of EA-D
- IC50 (Epstein-Barr virus (EBV) [4]): 681 nM

Compound: COC[C@H]1OC(=O)c2coc3c2[C@@]1(C)C1=C(C3=O)[C@@H]2CCC(=O)[C@@]2(C)C[C@H]1OC(C)=O [Wortmannin]
- TI (therapeutic index, CC50/IC50 ratio) (Epstein-Barr virus (EBV) [3]): 13
- effect on EBV replication in words (Epstein-Barr virus (EBV) [3]; [8]): effective in inhibiting the EBV replication
- EA-D expression (immunoblot) (EBV early protein EA-D; 1μM PKI, Fig. 2B): no EA-D expression was detected
- viral reactivation assessed by expression of EA-D, in words (EBV early protein EA-D): inhibited EA-D expression
- IC50 (Epstein-Barr virus (EBV) [4]): 367 nM
- CC50 at 48 h (in vitro): 4690 nM

Compound: Cc1ccc(S(=O)(=O)/C=C/C#N)cc1 [BAY 11-7082]
- CC50 (Akata cells [2]): 2640 nM
- effect on EBV replication in words (Epstein-Barr virus (EBV) [3]; 10μM PKI, Akata cells, 48 hours after IgG induction, listed as BAY-11-7082): effective in inhibiting the EBV replication
- effect on EBV replication in words (Epstein-Barr virus (EBV) [3]; 10μM PKI, Akata cells, 48 hours after IgG induction, listed as Bay 11-7082): inhibited viral replication
- IC50 (Epstein-Barr virus (EBV) [3]; Akata cells, 48 hours): 208 nM
- EA-D expression (immunoblot) (EBV early protein EA-D; 1μM PKI, Fig. 2B): intermediate
- level of hyperphosphorylated form of EA-D (top band) (EBV early protein EA-D; 1μM PKI, Fig. 2B): more pronounced effect on the levels of the hyperphosphorylated form of EA-D
- expression levels of housekeeping genes (β-actin) (EBV early protein EA-D; 10μM, Fig. 2A): loss of β-actin

Compound: N#CCCn1c2ccccc2c2c3c(c4c5ccccc5[nH]c4c21)C(=O)NC3 [NGIC-I, non-glycosidic indolocarbazole I]
- concentration inhibiting pUL97 autophosphorylation activity ([7]; ref Marschall et al.): 0.5 μM
- effect on activity of purified EBV-PK (purified EBV-PK): did not inhibit

Compound: CC(C)(C)c1cc(C=C(C#N)C#N)cc(C(C)(C)C)c1O [Tyrphostin 9]
- TI (therapeutic index, CC50/IC50 ratio) (Epstein-Barr virus (EBV) [3]; Akata cells, 48 hours): 3
- IC50 (Epstein-Barr virus (EBV) [3]; Akata cells, 48 hours): 217 nM
- CC50 (Akata cells [5]): 573 nM
- EA-D expression (immunoblot) (EBV early protein EA-D; 1μM PKI, Fig. 2B): did not affect the expression of EA-D

Compound: N#CC(=C(/N)Sc1ccccc1N)/C(C#N)=C(/N)Sc1ccccc1N [U-0126]
- CC50 (Akata cells [2]): 7380 nM
- TI (therapeutic index, CC50/IC50 ratio) (Epstein-Barr virus (EBV) [3]): 13
- effect on EBV replication in words (Epstein-Barr virus (EBV) [3]; [8]): effective in inhibiting the EBV replication
- IC50 (Epstein-Barr virus (EBV) [3]; Akata cells, 48 hours): 552 nM
- EA-D expression (immunoblot) (EBV early protein EA-D; 1μM PKI, Fig. 2B): did not affect the expression of EA-D
- EA-D expression (immunoblot) (EBV early protein EA-D; 10μM PKI, Fig. 2A): remain relatively high
- viral reactivation assessed by expression of EA-D, in words (EBV early protein EA-D): did not inhibit viral reactivation

Compound: COC(=O)/C=C/c1cc(O)ccc1O [Erbstatin analog]
- effect on EBV replication in words (Epstein-Barr virus (EBV) [3]; [8]): inhibited EBV replication in cells
- IC50 (Epstein-Barr virus (EBV) [3]; Akata cells, 48 hours): 2370 nM
- EA-D expression (immunoblot) (EBV early protein EA-D; 1μM PKI, Fig. 2B): did not affect the expression of EA-D
- viral reactivation assessed by expression of EA-D, in words (EBV early protein EA-D): did not inhibit viral reactivation

Compound: O=c1cc(N2CCOCC2)oc2c(-c3ccccc3)cccc12 [LY 294002]
- TI (therapeutic index, CC50/IC50 ratio) (Epstein-Barr virus (EBV) [3]): 3
- EA-D expression (immunoblot) (EBV early protein EA-D; 1μM PKI, Fig. 2B): intermediate
- level of hyperphosphorylated form of EA-D (top band) (EBV early protein EA-D; 1μM PKI, Fig. 2B): more pronounced effect on the levels of the hyperphosphorylated form of EA-D
- IC50 (Epstein-Barr virus (EBV) [4]): 1840 nM
- CC50 (in vitro): 6160 nM

Compound: CC(C)Nc1nc2cc(Cl)c(Cl)cc2n1[C@H]1O[C@@H](CO)[C@H](O)[C@@H]1O [MBV, maribavir]
- concentration inhibiting pUL97 autophosphorylation activity ([7]; ref Biron et al., Hamirally et al., 2009): 1 μM
- effect on EBV replication (EBV): inhibits EBV replication
- effect on activity of purified EBV-PK (purified EBV-PK): did not inhibit

Compound: CC(=O)c1c(O)c(C)c(O)c(Cc2c(O)c3c(c(C(=O)/C=C/c4ccccc4)c2O)OC(C)(C)C=C3)c1O [Rottlerin]
- effect on EBV replication in words (Epstein-Barr virus (EBV) [3]; [8]): effective in inhibiting the EBV replication
- TI (therapeutic index, CC50/IC50 ratio) (Epstein-Barr virus (EBV) [3]; Akata cells, 48 hours): 1
- EA-D expression (immunoblot) (EBV early protein EA-D; 1μM PKI, Fig. 2B): did not affect the expression of EA-D
- IC50 (Epstein-Barr virus (EBV) [4]): 983 nM
- CC50 at 48 h (in vitro): 1000 nM
